Laboratory results: patent US10407429B2, “Pyrazolo[1,5-a]triazin-4-amine derivatives useful in therapy” (Curovir AB, priority 2015, dated 2019)
pIC50: −log10 of the molar value.

Tests used:
Type in all cases: cell-based
Enterovirus 6 = assay: Antiviral CPE assay in mammalian cell culture; conditions: prevention of viral CPE, read-out: inhibition capacity (IC50) EV6
Enterovirus 30 = assay: Antiviral CPE assay in mammalian cell culture; conditions: Enterovirus, read-out: inhibition capacity (IC50) EV30
Enterovirus 71 = assay: Antiviral CPE assay in mammalian cell culture; conditions: Enterovirus A, EV71, prevention of viral CPE, read-out: inhibition capacity (IC50) EV71
coxsackie B1 virus = assay: Antiviral CPE assay in mammalian cell culture; conditions: read-out: inhibition capacity (IC50) Bl
coxsackie B2 virus = assay: Antiviral CPE assay in mammalian cell culture; conditions: read-out: inhibition capacity (IC50) B2
coxsackie B3 virus = assay: Antiviral CPE assay in mammalian cell culture; conditions: Enterovirus B, B3, read-out: inhibition capacity (IC50) B3
coxsackie B5virus = assay: Antiviral CPE assay in mammalian cell culture; conditions: read-out: inhibition capacity (IC50) B5
polio virus Sabin 1 = assay: organism not typed; conditions: read-out: inhibition capacity (IC50) Polio 1
Enterovirus 68 = assay: Antiviral CPE assay in mammalian cell culture; conditions: Enterovirus D, EV68, read-out: inhibition capacity (IC50) EV68
coxsackie B 4 virus = assay: Antiviral CPE assay in mammalian cell culture; conditions: Enterovirus B, B4, read-out: inhibition capacity (IC50) B4

| SMILES | pIC50 (Enterovirus 6) | pIC50 (Enterovirus 30) | pIC50 (Enterovirus 71) | pIC50 (coxsackie B1 virus) | pIC50 (coxsackie B2 virus) | pIC50 (coxsackie B3 virus) | pIC50 (coxsackie B5virus) | pIC50 (polio virus Sabin 1) | pIC50 (Enterovirus 68) | pIC50 (coxsackie B 4 virus) |
| --- | --- | --- | --- | --- | --- | --- | --- | --- | --- | --- |
| COc1ccc(-c2c(C)nn3c(NCc4ccc(F)cc4)nc(C)nc23)cc1OC [Example 1, 8-(3,4-dimethoxyphenyl)-N-[(4-fluorophenyl)methyl]-2,7-dimethyl-pyrazolo[1,5-a][1,3,5]triazin-4-amine] | > 6.00 | > 7.00 | > 8.00 | > 7.00 | > 8.00 | > 6.00 | > 7.00 | > 8.00 |  |  |
| COc1ccc(-c2c(C)nn3c(NCc4cc[n+]([O-])cc4)nc(C)nc23)cc1OC [Example 12, 8-(3,4-dimethoxyphenyl)-2,7-dimethyl-N-[(1-oxidopyridin-1-ium-4-yl)methyl]pyrazolo[1,5-a][1,3,5]triazin-4-amine] |  | > 6.00 | > 6.00 | > 6.00 | > 6.00 | > 6.00 | > 6.00 | > 6.00 | > 6.00 | > 6.00 |
| COc1ccc(-c2c(C)nn3c(NCc4cccnc4)nc(C)nc23)cc1OC [Example 22, 8-(3,4-dimethoxyphenyl)-2,7-dimethyl-N-(3-pyridylmethyl)pyrazolo[1,5-a][1,3,5]triazin-4-amine] | > 7.00 | > 7.00 | > 7.00 | > 7.00 | > 7.00 | > 7.00 | > 7.00 | > 7.00 | > 7.00 | > 7.00 |
| COc1ccc(-c2c(C)nn3c(NCc4cnc(C)nc4)nc(C)nc23)cc1OC [Example 30, 8-(3,4-dimethoxyphenyl)-2,7-dimethyl-N-[(2-methylpyrimidin-5-yl)methyl]pyrazolo[1,5-a][1,3,5]triazin-4-amine] | > 6.00 | > 7.00 | > 7.00 | > 6.00 | > 6.00 | > 6.00 | > 6.00 | > 7.00 | > 7.00 | > 7.00 |
| COc1ccc(-c2c(C)nn3c(NCCc4ccc(Cl)cc4)nc(C)nc23)cc1OC [Example 7, N-[2-(4-chlorophenyl)ethyl]-8-(3,4-dimethoxyphenyl)-2,7-dimethyl-pyrazolo[1,5-a][1,3,5]triazin-4-amine] | > 6.00 | > 6.00 | > 6.00 | > 6.00 | > 6.00 | > 6.00 | > 6.00 | > 6.00 | > 6.00 | > 6.00 |
| COc1ccc(-c2c(C)nn3c(NCc4ccn(C)n4)nc(C)nc23)cc1OC [Example 27, 8-(3,4-dimethoxyphenyl)-2,7-dimethyl-N-[(1-methyl-1H-pyrazol-3-yl)methyl]pyrazolo[1,5-a][1,3,5]triazin-4-amine] | > 6.00 | > 7.00 | > 7.00 | > 8.00 | > 8.00 | > 7.00 | > 7.00 | > 8.00 | > 8.00 | > 8.00 |
| COc1ccc(-c2c(C)nn3c(NCc4ccc(C)cc4)nc(C)nc23)cc1OC [Example 3, 8-(3,4-dimethoxyphenyl)-2,7-dimethyl-N-(p-tolylmethyl)pyrazolo[1,5-a][1,3,5]triazin-4-amine] | > 6.00 | > 7.00 | > 7.00 | > 7.00 | > 7.00 | > 7.00 | > 7.00 | > 7.00 | > 7.00 | > 7.00 |
